The values that follow come from ChEMBL document CHEMBL5360534, “Synthetic α-glucosidase inhibitors as promising anti-diabetic agents: Recent developments and future challenges” (Eur J Med Chem, 2023).

In experiment [1] the target is T1, Alpha-glucosidase (Saccharomyces cerevisiae S288c, UniProt P53341+P38158+P07265). Kind of experiment: Inhibition of Saccharomyces cerevisiae alpha-glucosidase using p-nitrophenyl-alpha-D-glucopyranoside as substrate preincubated for 10 mins followed by substrate addition and measured by spectrophotometric analysis. In kind it is protein assay.
Experiment [2] concerns the target T1, Alpha-glucosidase. The experiment is described as follows: Inhibition of Saccharomyces cerevisiae alpha-glucosidase using p-nitrophenyl-alpha-D-glucopyranoside as substrate assessed as inhibition constant preincubated for 10 mins followed by substrate addition and measured by spectrophotometric analysis. In kind it is protein assay.
The target in experiment [3] is T1, Alpha-glucosidase. Kind of experiment: Inhibition of Saccharomyces cerevisiae alpha-glucosidase using pNPG as substrate. In kind it is protein assay.
For experiment [4], the target named is T1, Alpha-glucosidase. The experiment is described as follows: Competitive inhibition of Saccharomyces cerevisiae alpha-glucosidase using pNPG as substrate assessed as inhibition constant. In kind it is protein assay.
For experiment [5], the target named is T1, Alpha-glucosidase. The experiment is described as follows: Inhibition of Saccharomyces cerevisiae alpha-glucosidase using p-nitrophenyl-alpha-D-glucopyranoside as substrate preincubated for 5 mins followed by substrate addition and measured after 15 mins by absorbance based microplate reader analysis. In kind it is protein assay.
Experiment [6] is described as follows: Inhibition of alpha-glucosidase (unknown origin) using p-nitrophenyl-alpha-D-glucopyranoside as substrate preincubated for 20 mins followed by substrate addition and measured after 30 mins by UV-visible spectrophotometric analysis. Details: species or system Homo sapiens.
The target of experiment [7] is T2, Alpha-glucosidase (Saccharomyces cerevisiae S288c) (UniProt P53341+P38158+P07265). Kind of experiment: Potency index, ratio of acarbose IC50 to test compound IC50 for inhibition of Saccharomyces cerevisiae recombinant alpha-glucosidase using p-nitrophenyl-alpha-D-glucopyranoside as substrate preincubated for 15 mins followed by substrate addition and measured after 30 mins by microplate reader based analysis. In kind it is protein assay. The note with it: time 45.0 min.

For experiment [8], the target named is T1, Alpha-glucosidase. Kind of experiment: Inhibition of Saccharomyces cerevisiae recombinant alpha-glucosidase using p-nitrophenyl-alpha-D-glucopyranoside as substrate preincubated for 15 mins followed by substrate addition and measured after 30 mins by microplate reader based analysis. In kind it is protein assay.
The species entered for experiment [9] is Homo sapiens. The experiment is described as follows: Potency index, ratio of acarbose IC50 to test compound IC50 for inhibition of alpha-glucosidase (unknown origin) using p-nitrophenyl-alpha-D-glucopyranoside as substrate preincubated for 10 mins followed by substrate addition and measured after 20 mins by absorbance based analysis. The note with it: time 30.0 min.

Experiment [10] is described as follows: Inhibition of alpha-glucosidase (unknown origin) using p-nitrophenyl-alpha-D-glucopyranoside as substrate preincubated for 10 mins followed by substrate addition and measured after 20 mins by absorbance based analysis. The arrangement: species or system Homo sapiens.
Experiment [11] addresses T1, Alpha-glucosidase. Kind of experiment: Inhibition of Saccharomyces cerevisiae alpha-glucosidase using p-nitrophenyl-alpha-D-glucopyranoside as substrate preincubated for 5 mins followed by substrate addition and measured after 5 mins by absorbance based analysis. In kind it is protein assay.
The target of experiment [12] is T2, Alpha-glucosidase (Saccharomyces cerevisiae S288c). The experiment is described as follows: Potency index, ratio of acarbose IC50 to test compound IC50 for inhibition of Saccharomyces cerevisiae alpha-glucosidase using p-nitrophenyl-alpha-D-glucopyranoside as substrate preincubated for 5 mins followed by substrate addition and measured after 5 mins by absorbance based analysis. The settings on record: time 10.0 min. In kind it is protein assay.

A short description of experiment [13]: Inhibition of alpha-glucosidase (unknown origin) using p-nitrophenyl glucopyranoside as substrate preincubated for 10 mins followed by substrate addition and measured after 30 mins by absorbance based analysis. The arrangement: species or system Homo sapiens.
For experiment [14], the species on record is Homo sapiens. Kind of experiment: Potency index, ratio of acarbose IC50 to test compound IC50 for inhibition of alpha-glucosidase (unknown origin) using p-nitrophenyl glucopyranoside as substrate preincubated for 10 mins followed by substrate addition and measured after 30 mins by absorbance based analysis. The settings on record: time 40.0 min.
For experiment [15], the target named is T1, Alpha-glucosidase. The experiment is described as follows: Inhibition of Saccharomyces cerevisiae alpha-glucosidase using p-nitrophenyl-alpha-D-glucopyranoside as substrate preincubated for 5 mins followed by substrate addition and measured after 5 mins by spectrophotometric analysis. In kind it is protein assay.
Experiment [16] concerns the target T1, Alpha-glucosidase. The experiment is described as follows: Competitive inhibition of Saccharomyces cerevisiae alpha-glucosidase using pNPG as substrate assessed as inhibition constant preincubated for 10 mins followed by substrate addition and measured after 20 mins by spectrophotometric analysis. In kind it is protein assay.
In experiment [17] the target is T2, Alpha-glucosidase (Saccharomyces cerevisiae S288c). Kind of experiment: Potency index, ratio of acarbose IC50 to test compound IC50 for inhibition of Saccharomyces cerevisiae alpha-glucosidase using pNPG as substrate preincubated for 10 mins followed by substrate addition and measured after 20 mins by spectrophotometric analysis. In kind it is protein assay. The settings on record: time 30.0 min.

Experiment [18] deals with T1, Alpha-glucosidase. Kind of experiment: Inhibition of Saccharomyces cerevisiae alpha-glucosidase using pNPG as substrate preincubated for 10 mins followed by substrate addition and measured after 20 mins by spectrophotometric analysis. In kind it is protein assay.
A short description of experiment [19]: Inhibition of rat intestinal alpha-glucosidase.
The target of experiment [20] is T1, Alpha-glucosidase. Kind of experiment: Inhibition of Saccharomyces cerevisiae alpha-glucosidase using pNPG as substrate by spectroscopic analysis. In kind it is protein assay.

Turning to `COc1ccc(C2NC(=O)c3ccccc3N2)cc1` (stereo not given), the IC50 at Alpha-glucosidase [1] is 1.15 µM. Moreover, the Ki at Alpha-glucosidase [2] was found to be 0.42 µM.

In turn, `COc1cc(-c2[nH]c3ccccc3c2/C=N/NC(=S)Nc2ccccc2)cc(OC)c1OC` registered an IC50 at Alpha-glucosidase [3] of 27 µM. Also, the Ki on Alpha-glucosidase [4] was found to be 27 µM. As to `O=C(c1ccc(O)cc1)C1Cc2c(ccc3ccccc23)O1` (stereo not given), the IC50 on Alpha-glucosidase [5] is 6.5 µM. On to `CCOC(=O)c1c(C)n(C2CC2)c2ccc(OCc3nnc(-c4ccc(O)cc4)[nH]3)cc12`, for which the IC50 in [6] came to 30 µM. As to `Cn1cc(-c2nnc(-c3ccc(C(c4cn(Cl)c5ccccc45)c4cn(Cl)c5ccccc45)cc3)o2)c2ccccc21`, in experiment [7], the Ratio IC50 is 400. Moreover, the IC50 on Alpha-glucosidase [8] was found to be 2 µM. Take `N#CC(c1c[nH]c2ccc(Br)cc12)c1c[nH]c2ccc(Br)cc12`: the Ratio IC50 in the experiment listed under Homo sapiens [9] was 30. The same compound displayed an IC50 in experiment [10] of 7.54 µM. `O=c1cc(-c2cccc(OCc3cc(C(F)(F)F)ccc3C(F)(F)F)c2)oc2ccccc12` registered an IC50 at Alpha-glucosidase [11] of 1.26 µM. The Ratio IC50 in experiment [12] worked out at 30. For `O=C(NNS(=O)(=O)c1cc(Cl)c(Cl)cc1Cl)c1ccc2[nH]cc(C(c3ccccc3)c3c[nH]c4ccc(C(=O)NNS(=O)(=O)c5cc(Cl)c(Cl)cc5Cl)cc34)c2c1`, the IC50 in experiment [13] was 0.1 µM. The Ratio IC50 in the experiment listed under Homo sapiens [14] is 8500.

`CCCSc1nnc(C(C)c2ccc3cc(OC)ccc3c2)n1-c1ccc(F)cc1` (stereo not given) displayed an IC50 against Alpha-glucosidase [15] of 1 µM. As to `O=C(N/N=C/c1cn(-c2ccccc2)nc1-c1ccc([N+](=O)[O-])cc1)c1cc2ccccc2o1`, the inhibition constant Ki at Alpha-glucosidase [16] is 38 µM. For the same compound, the Ratio IC50 in [17] was found to be 18. Further, on Alpha-glucosidase [18], the IC50 was 40.6 µM. `N[C@H]1C=C(CO)[C@@H](O)[C@H](O)[C@H]1O` [VALIENAMINE] gave an IC50 in experiment [19] of 91 µM.

Compound `Brc1cccc(CSc2nnc(-c3ccc4nc(-c5ccccc5)c(-c5ccccc5)nc4c3)o2)c1` came in with a half-inhibitory concentration (IC50) on Alpha-glucosidase [20] of 0.02847 µM.
